pIC50: −log10 of the molar value. Read-outs that look alike come from different tables or passages of the source.
Experiments:
[1] = test system: MPP^+-treated BE(2)-M17 cells; test: cell viability (MTT) in MPP^+-treated BE(2)-M17 cells; format: cell-based; conditions: Homo sapiens, read-out: cell viability
Method: To examine neuroprotective potential of LM compounds, BE(2)-M17 cells were plated onto 96-well plate [1 × 10^4/well for cell viability and lactate dehydrogenase (LDH) release assays] or 24-well plate (5 × 10^4/well for ROS assay) with retinoic acid addition (5 μM) on day 1 to initiate neuronal differentiation. On day 5, after removing retinoic acid, cells were pre-treated with LM compounds (1–10 μM) for 8 h, followed by addition of 0.62 mM MPP^+ for 40 h. The cell viability was evaluated by MTT assay as described, and the release of LDH in cell culture medium was measured by using LDH cytotoxicity assay kit (Cayman Chemical). The absorbance was read at 490 nm with Multiskan GO microplate reader (Thermo Fisher Scientific).

[2] = oxygen radical antioxidant capacity (OxiSelect kit); conditions: at 4–100 μM concentration
Method: The test of oxygen radical antioxidant capacity (Ou et al., [2001]) was performed using OxiSelect™ kit (Cell Biolabs, San Diego, CA, USA). Briefly, trolox standards (2.5–50 μM) and LM compounds (4–100 μM) were prepared using a serial dilution in a mixture containing 50% acetone and 50% water. After adding fluorescein to blank (50% acetone/50% water), standards, or samples, the mixture was mixed and incubated at 37°C for 30 min. Subsequently, free radical initiator 2,2′-azobis(2-methylpropionamidine) dihydrochloride (AAPH) was added to generate peroxyl radicals (ROO•). The quenching of fluorescent probe over time was recorded at 480 nm excitation and 520 nm emission for 60 min (Bio-Tek FLx800). To quantify the oxygen radical absorbance capacity, the area under the curve (AUC) for blank, standard and samples were calculated. After subtraction of the blank, trolox equivalent (μM) of samples were determined using a calibration curve with trolox standards.

[3] = cytotoxicity MTT assay in HMC3 cells; format: cell-based, human; conditions: human, MTT, 1–100 μM, 24 h
Method: Human HMC3 microglial (CRL-3304) and neuroblastoma BE(2)-M17 (CRL-2267) cells were obtained from American Type Culture Collection. BE(2)-M17 develops a better dopaminergic phenotype than SH-SY5Y when treated with retinoic acid to direct neuronal differentiation (Carvajal-Oliveros et al., [2022]). Cells were routinely maintained in Dulbecco's Modified Eagle Medium-Nutrient Mixture F12 (DMEM-F12) supplemented with 10% fetal bovine serum (FBS; Thermo Fisher Scientific, Waltham, MA, USA) in a 37°C incubator, with 95% relative humidity and 5% CO2 (NuAire, Plymouth, MN, USA).
To evaluate cytotoxicity of LM compounds and MPP^+, HMC3 (1 × 10^4) or BE(2)-M17 (2 × 10^4) cells were plated on 96-well dishes, grown for 20 h, and treated with LM compounds (1–100 μM) or MPP^+ [HMC3: 0–8 mM; BE(2)-M17: 0–5 mM]. Next day, 20 μl of tetrazolium dye 3-(4,5-dimethylthiazol-2-yl)-2,5-diphenyltetrazolium bromide (MTT, 5 mg/ml; Sigma-Aldrich) was added to the cells at 37°C for 3 h. The resulted insoluble purple formazan products were dissolved by lysis buffer (composition: 10% Triton X-100, 0.1 N HCl, 18% isopropanol). The absorbance of the dissolved product at optical density (OD) 570 nm was read by using a FLx800 fluorescence microplate spectrophotometer (Bio-Tek, Winooski, VT, USA). The half maximal inhibitory concentration (IC50) of LM compounds was determined through the construction of a dose-response curve. MPP^+ at 4 mM (HMC3 cell viability: 65%−69%) or 0.62 mM [BE(2)-M17 cell viability: 79%−84%] was selected to induce inflammation for further experiments.

BE(2)-M17 cells = test: high-content analysis of neurite outgrowth in MPP^+-treated BE(2)-M17 cells; format: cell-based, human; conditions: for neurite length: MPP^+ alone 24.2 μm
Method: For automated neuronal morphology analysis, BE(2)-M17 cells were seeded in 24-well plate (5 × 10^4/well) and treated with retinoic acid, LM compounds (10 μM), and MPP^+ as described. On day 7, after being fixed and permeated, cells were stained with TUBB3 (neuronal class III β-tubulin) antibody (#802001; 1:1,000; BioLegend, San Diago, CA, USA) at 4°C overnight, followed by Alexa Fluor 555-donkey anti-rabbit (#A-31572) antibody (1:1,000; Thermo Fisher Scientific) at room temperature for 2 h. TUBB3 is a β-tubulin isoform constitutively expressed in neurons and important for maintaining further neurite elongation (Ferreira and Caceres, [1992]). After nuclei staining with DAPI, neuronal images were captured at 531 nm excitation and 593 nm emission wavelengths (ImageXpress Micro Confocal; Molecular Devices). Microscopic images were segmented with multi-colored mask to assign each outgrowth to a cell body for quantification of neurite outgrowth. Neurite total length (μm) and numbers of primary neurites originated from neuronal cell body (process) and secondary neurites extended from primary neurites (branch) were analyzed (Neurite Outgrowth Application Module; Molecular Devices). For each sample, around 3,000 cells were analyzed in each of three independent experiments.

[4] = BE(2)-M17, compound 10 μM + 0.62 mM MPP^+, MPP^+ alone 2.6
[5] = BE(2)-M17, compound 10 μM + 0.62 mM MPP^+

| SMILES | viability at 10 µM ([1]; retinoic acid-differentiated BE(2)-M17, compound 10 μM 8 h, then 0.62 mM MPP^+ 40 h, MPP^+ alone 81%, untreated = 100%) [%] | oxygen radical antioxidant capacity, trolox equivalent [2] [µM] | IC50 at 24 h ([3]; HMC3 microglial cells) [µM] | viability at 10 µM [1] [%] | number of process (BE(2)-M17 cells; [4]) | neurite length (BE(2)-M17 cells; [5]) | pIC50 [3] | number of branch (BE(2)-M17 cells; BE(2)-M17, 0.62 mM MPP^+ alone, untreated 1.2, not significant) | number of process (BE(2)-M17 cells; BE(2)-M17, 0.62 mM MPP^+ alone, untreated 2.9) | total length of neurite (BE(2)-M17 cells; BE(2)-M17, 0.62 mM MPP^+ alone, untreated 26.0 μm) [μm] |
| --- | --- | --- | --- | --- | --- | --- | --- | --- | --- | --- |
| Cc1ccc(/C=C/C(=O)c2c(O)c3ccccc3oc2=O)cc1 [LM-016] | 95 to 97 | 0 to 10 | > 100 | – | – | – | – | – | – | – |
| CN(C)c1ccc(/C=C/C(=O)c2c(O)c3ccccc3oc2=O)cc1 [LM-021, (E)-3-(3-(4-(dimethylamino)phenyl)acryloyl)-4-hydroxy-2H-chromen-2-one] | – | 2 to 36 | – | 95 to 97 | 2.8–3.0 | 26.2–27.2 μm | < 4.00 | – | – | – |
| O=C(/C=C/c1ccccc1O)c1c(O)c2ccccc2oc1=O [LM-036] | – | 15 to 40 | – | 95 to 97 | 2.8–3.0 | 26.2–27.2 μm | < 4.00 | – | – | – |
| C[n+]1ccc(-c2ccccc2)cc1 [MPP^+, 1-methyl-4-phenyl pyridinium, reference compound] | – | – | – | – | – | – | – | 1.1 | 2.6 | 24.2 |
